# Source: ChEMBL document CHEMBL1127133, “Substituted 6-alkyloxapenems: potent -lactamase inhibitors: synthesis and biological characterization” (Bioorg Med Chem Lett, 1993)
# Experiment: T1/2 (phosphate buffer pH 7.0 @ 28 degree C)
# Assay type: ADME
row,SMILES,half-life [h]
1,CC(C)(C)C1=C(C(=O)[O-])N2C(=O)[C@H](CNC(=O)[C@H](N)c3ccccc3)[C@H]2O1.[Na+],2.2
2,CC(C)(C)C1=C(C(=O)[O-])N2C(=O)[C@H]([C@@H](O)CCc3ccc(O)cc3)[C@H]2O1.[Na+],21.2
3,CC(C)(C)C1=C(C(=O)[O-])N2C(=O)[C@H]([C@@H](O)c3ccccc3)[C@H]2O1.[Na+],8.9
4,CC(C)(C)C1=C(C(=O)[O-])N2C(=O)[C@H]([C@H](O)c3ccccc3)[C@H]2O1.[Na+],7
5,C[C@H](O)[C@H]1C(=O)N2C(C(=O)[O-])=C(C(C)(C)C)O[C@H]12.[Na+],7.1
6,C[C@@H](O)[C@H]1C(=O)N2C(C(=O)[O-])=C(C(C)(C)C)O[C@H]12.[Na+],8.1
7,COC(=O)[C@H](O)[C@H]1C(=O)N2C(C(=O)[O-])=C(C(C)(C)C)O[C@H]12.[Na+],6.7
8,C[C@@H](F)[C@H]1C(=O)N2C(C(=O)[O-])=C(C(C)(C)C)O[C@H]12.[Na+],3.5
9,CC(C)(C)C1=C(C(=O)[O-])N2C(=O)[C@H](CNS(=O)(=O)Cc3ccccc3)[C@H]2O1.[Na+],8.9
10,CC(C)(C)C1=C(C(=O)[O-])N2C(=O)[C@H]([C@H](O)c3ccccc3)[C@@H]2O1.[Na+],0.5
11,CC(C)(C)C1=C(C(=O)[O-])N2C(=O)[C@H](CNC(=O)Cc3ccccc3)[C@H]2O1.[Na+],5.5
12,CC(C)(C)C1=C(C(=O)[O-])N2C(=O)[C@H]([C@H](O)CCc3ccncc3)[C@@H]2O1.[Na+],7.1
13,CC(C)(C)C1=C(C(=O)[O-])N2C(=O)[C@H](CNC(=O)CNC(=O)Cc3ccccc3)[C@H]2O1.[Na+],6.6
14,CC(C)(C)C1=C(C(=O)[O-])N2C(=O)[C@H]([C@@H](O)CCc3ccccc3)[C@H]2O1.[Na+],39
15,CC(C)(C)C1=C(C(=O)[O-])N2C(=O)[C@H](CN)[C@H]2O1.[Na+],1.2
16,CC(C)(C)C1=C(C(=O)[O-])N2C(=O)[C@H]([C@@H](O)CCc3ccncc3)[C@H]2O1.[Na+],15.8
17,CC(C)(C)C1=C(C(=O)[O-])N2C(=O)[C@H]([C@@H](O)c3ccncc3)[C@H]2O1.[Na+],6
18,CC(C)(C)C1=C(C(=O)[O-])N2C(=O)[C@H](CNS(C)(=O)=O)[C@H]2O1.[Na+],2.2
19,CC(C)(C)OC(=O)[C@H](O)[C@H]1C(=O)N2C(C(=O)[O-])=C(C(C)(C)C)O[C@H]12.[Na+],10.7

row,SMILES,half-life [h]
1,CC(C)(C)C1=C(C(=O)[O-])N2C(=O)[C@H]([C@H](O)CCc3ccncc3)[C@H]2O1.[Na+],13.7
2,CC(C)(C)C1=C(C(=O)[O-])N2C(=O)[C@H](CO)[C@@H]2O1.[Na+],2.4
3,C[C@H](F)[C@H]1C(=O)N2C(C(=O)[O-])=C(C(C)(C)C)O[C@H]12.[Na+],7.2
4,Cn1cc([C@H](O)[C@H]2C(=O)N3C(C(=O)[O-])=C(C(C)(C)C)O[C@H]23)nn1.[Na+],7
5,CC(C)(C)C1=C(C(=O)[O-])N2C(=O)[C@H]([C@H](O)CCc3ccc(O)cc3)[C@H]2O1.[Na+],24.6
6,CC(C)(C)C1=C(C(=O)[O-])N2C(=O)[C@H](CNC(=O)COC(=O)Cc3ccccc3)[C@H]2O1.[Na+],9.3
7,CC(C)(C)C1=C(C(=O)[O-])N2C(=O)[C@H](CNC(=O)COc3ccccc3)[C@H]2O1.[Na+],5.7
8,CC(=O)NC[C@H]1C(=O)N2C(C(=O)[O-])=C(C(C)(C)C)O[C@H]12.[Na+],< 3
9,CC(C)(C)C1=C(C(=O)[O-])N2C(=O)[C@H]([C@@H](O)c3ccccc3)[C@@H]2O1.[Na+],2.2
10,COC(=O)[C@@H](O)[C@H]1C(=O)N2C(C(=O)[O-])=C(C(C)(C)C)O[C@H]12.[Na+],6.2
11,CC(C)(C)C1=C(C(=O)[O-])N2C(=O)[C@H](CO)[C@H]2O1.[Na+],5
12,CC(C)(C)C1=C(C(=O)[O-])N2C(=O)[C@H]([C@H](O)CCc3ccccc3)[C@H]2O1.[Na+],21
13,CC(C)(C)C1=C(C(=O)[O-])N2C(=O)[C@H]([C@@H](O)c3ccc(O)cc3)[C@H]2O1.[Na+],10.3
14,C[C@@H](O)[C@H]1C(=O)N2C(C(=O)[O-])=C(C(C)(C)C)O[C@@H]12.[Na+],6.4
15,Cn1cc([C@@H](O)[C@H]2C(=O)N3C(C(=O)[O-])=C(C(C)(C)C)O[C@H]23)nn1.[Na+],6.8
16,CC(C)(C)C1=C(C(=O)[O-])N2C(=O)[C@H]([C@H](O)c3ccncc3)[C@H]2O1.[Na+],6.4
17,CC(C)(C)C1=C(C(=O)[O-])N2C(=O)[C@H]([C@@H](O)CCc3ccc(O)cc3)[C@@H]2O1.[Na+],11.8
18,CC(C)(C)C1=C(C(=O)[O-])N2C(=O)[C@H](CNC(=O)CCNC(=O)Cc3ccccc3)[C@H]2O1.[Na+],5.5
19,O=C([O-])[C@H]1/C(=C/CO)O[C@@H]2CC(=O)N21.[K+] [CLAVULANATE POTASSIUM],60
